Holding throughout (format): functional
Experiment [1] relates to Rattus norvegicus. Nature of the experiment: Anti-inflammatory activity in Wistar Rattus norvegicus (rat) assessed as inhibition of carrageenan-induced paw edema at 10 mg/kg, ip measured after 3 hr. The conditions noted are these: route intraperitoneal. A general note: The carrageenan paw model is a standard test of acute inflammation.
Experiment [2] deals with Rattus norvegicus. Nature of the experiment: Anti-inflammatory activity in Wistar Rattus norvegicus (rat) assessed as inhibition of carrageenan-induced paw edema at 10 mg/kg, ip measured after 4 hr. The conditions noted are these: route intraperitoneal.
Experiment [3] relates to Rattus norvegicus. Briefly: Anti-inflammatory activity in Wistar Rattus norvegicus (rat) assessed as inhibition of carrageenan-induced paw edema at 10 mg/kg, ip measured after 2 hr. The conditions noted are these: route intraperitoneal.
The test system of experiment [4] is Rattus norvegicus. Nature of the experiment: Anti-inflammatory activity in Wistar Rattus norvegicus (rat) assessed as inhibition of carrageenan-induced paw edema at 10 mg/kg, ip measured after 1 hr. The conditions noted are these: route intraperitoneal.
The test system of experiment [5] is Rattus norvegicus. Briefly: Anti-inflammatory activity in Wistar Rattus norvegicus (rat) assessed as inhibition of carrageenan-induced paw edema at 10 mg/kg, ip measured after 30 min. The conditions noted are these: 0.5 h, route intraperitoneal.
In another experiment the test system is Mus musculus. Nature of the experiment: Analgesic activity in NMRI Mus musculus (mouse) assessed as inhibition of acetic acid-induced abdominal writhing at 10 mg/kg administered 30 min prior to acetic acid injection. The conditions noted are these: Abdomen. (An intraperitoneal irritant provokes the stretching counted in writhing tests.)

SMILES strings stand for the structures.

As a reminder, the inhibition in vivo is the relative decrease from the control value, in per cent.

As to `COc1cc(/C=N/NC(=O)c2cccnc2Nc2cccc(C(F)(F)F)c2)cc(OC)c1OC`, the inhibition in vivo at 10 mg/kg in the experiment with Rattus norvegicus [1] was determined as 28.5%; with Rattus norvegicus [2], 28.6%; in the experiment with Rattus norvegicus [3] it was 40.6%; in the experiment on Rattus norvegicus [4], 54.4%; in the experiment on Rattus norvegicus [5], 55.9%.

In the case of `CNc1ncccc1C(=O)N/N=C/c1ccccc1`, the inhibition in vivo at 10 mg/kg with Rattus norvegicus [1] stood at 22.7%; in the experiment with Rattus norvegicus [2], 14.8%; in the experiment on Rattus norvegicus [3], 47.2%; with Rattus norvegicus [4] it was 67.6%; with Rattus norvegicus [5], 56.5%.

For the compound `CNc1ncccc1C(=O)N/N=C/c1ccc(Cl)cc1`, the inhibition in vivo at 10 mg/kg with Rattus norvegicus [1] turned out to be 22.4%; with Rattus norvegicus [2], 18.2%; in the experiment on Rattus norvegicus [3] it was 54.1%; in the experiment on Rattus norvegicus [4], 54.7%; with Rattus norvegicus [5], 46.5%.

Turning to `O=C(N/N=C/c1ccccc1)c1cccnc1Nc1cccc(C(F)(F)F)c1`, the inhibition in vivo at 10 mg/kg was 66.2% in the experiment with Mus musculus; 21.2% in the experiment with Rattus norvegicus [1]; 31% in the experiment on Rattus norvegicus [2]; 36.8% with Rattus norvegicus [3]; 53.9% in the experiment on Rattus norvegicus [4]; 60.4% in the experiment on Rattus norvegicus [5].

`CNc1ncccc1C(=O)N/N=C/c1cccnc1`: the inhibition in vivo at 10 mg/kg turned out to be 27.7% in the experiment with Rattus norvegicus [1]; 13.8% in the experiment on Rattus norvegicus [2]; 43.7% in the experiment on Rattus norvegicus [3]; 61.1% in the experiment with Rattus norvegicus [4]; 66.3% in the experiment with Rattus norvegicus [5].

`COc1cccc(/C=N/NC(=O)c2cccnc2Nc2cccc(C(F)(F)F)c2)c1`: the inhibition in vivo at 10 mg/kg with Rattus norvegicus [1] was 30.3%; with Rattus norvegicus [2] it was 14.9%; in the experiment with Rattus norvegicus [3], 49.7%; in the experiment on Rattus norvegicus [4], 58.8%; in the experiment on Rattus norvegicus [5], 52.8%.

On to `CN(C)c1ccc(/C=N/NC(=O)c2cccnc2Nc2cccc(C(F)(F)F)c2)cc1`, for which the inhibition in vivo at 10 mg/kg is 39.5% in the experiment with Rattus norvegicus [1]; 28.2% in the experiment on Rattus norvegicus [2]; 51.4% with Rattus norvegicus [3]; 63.5% in the experiment with Rattus norvegicus [4]; 61.3% in the experiment on Rattus norvegicus [5].

As to `O=C(N/N=C/c1cccnc1)c1cccnc1Nc1cccc(C(F)(F)F)c1`, the inhibition in vivo at 10 mg/kg with Mus musculus is 51.4%; in the experiment with Rattus norvegicus [1], 52.4%; in the experiment with Rattus norvegicus [2], 36%; in the experiment with Rattus norvegicus [3], 62.4%; with Rattus norvegicus [4] it was 76.1%; in the experiment with Rattus norvegicus [5], 59.1%.

Take `O=C(N/N=C/c1ccncc1)c1cccnc1Nc1cccc(C(F)(F)F)c1`: the inhibition in vivo at 10 mg/kg with Mus musculus was 85.6%; in the experiment on Rattus norvegicus [1] it was 54.9%; in the experiment on Rattus norvegicus [2], 45.9%; with Rattus norvegicus [3], 65.2%; with Rattus norvegicus [4], 70.2%; in the experiment with Rattus norvegicus [5] it was 68.1%.

For `COc1ccc(/C=N/NC(=O)c2cccnc2Nc2cccc(C(F)(F)F)c2)cc1OC`, the inhibition in vivo at 10 mg/kg in the experiment on Mus musculus is 80.7%; in the experiment with Rattus norvegicus [1], 44%; with Rattus norvegicus [2] it was 52.9%; with Rattus norvegicus [3] it was 49%; with Rattus norvegicus [4], 70%; in the experiment with Rattus norvegicus [5], 60.1%.

In the case of `O=C(N/N=C/c1ccc(Cl)cc1)c1cccnc1Nc1cccc(C(F)(F)F)c1`, the inhibition in vivo at 10 mg/kg came to 48.5% with Rattus norvegicus [1]; 43.7% in the experiment with Rattus norvegicus [2]; 52.8% with Rattus norvegicus [3]; 67.2% with Rattus norvegicus [4]; 52.4% with Rattus norvegicus [5].

Take `O=C(N/N=C/c1cccc(Cl)c1)c1cccnc1Nc1cccc(C(F)(F)F)c1`: the inhibition in vivo at 10 mg/kg in the experiment on Mus musculus came to 61.9%; in the experiment on Rattus norvegicus [1], 55.2%; in the experiment on Rattus norvegicus [2] it was 40.4%; in the experiment with Rattus norvegicus [3], 63.5%; with Rattus norvegicus [4], 76.7%; in the experiment on Rattus norvegicus [5], 77.8%.

As to `O=C(N/N=C/c1cccc(F)c1)c1cccnc1Nc1cccc(C(F)(F)F)c1`, the inhibition in vivo at 10 mg/kg with Rattus norvegicus [1] is 37%; with Rattus norvegicus [2], 29.8%; in the experiment with Rattus norvegicus [3], 52.8%; in the experiment with Rattus norvegicus [4], 51.5%; in the experiment on Rattus norvegicus [5], 58.2%.

Turning to `CNc1ncccc1C(=O)N/N=C/c1cccc(Cl)c1`, the inhibition in vivo at 10 mg/kg worked out at 39.5% with Rattus norvegicus [1]; 40.4% in the experiment on Rattus norvegicus [2]; 61.7% in the experiment with Rattus norvegicus [3]; 68.6% in the experiment on Rattus norvegicus [4]; 67.1% with Rattus norvegicus [5].

For `CNc1ncccc1C(=O)N/N=C/c1cccc(OC)c1`, the inhibition in vivo at 10 mg/kg in the experiment on Rattus norvegicus [1] came to 49.5%; in the experiment with Rattus norvegicus [2], 42.2%; in the experiment with Rattus norvegicus [3], 51.5%; in the experiment on Rattus norvegicus [4] it was 64.6%; with Rattus norvegicus [5] it was 56.1%.

With `O=C(N/N=C/c1ccc(F)cc1)c1cccnc1Nc1cccc(C(F)(F)F)c1`, the inhibition in vivo at 10 mg/kg was found to be 41.3% in the experiment on Rattus norvegicus [1]; 36.5% in the experiment with Rattus norvegicus [2]; 41.2% with Rattus norvegicus [3]; 43.2% in the experiment with Rattus norvegicus [4]; 33.9% in the experiment with Rattus norvegicus [5].

For the compound `COc1ccc(/C=N/NC(=O)c2cccnc2Nc2cccc(C(F)(F)F)c2)c(OC)c1`, the inhibition in vivo at 10 mg/kg in the experiment on Rattus norvegicus [1] was 24.1%; in the experiment on Rattus norvegicus [2] it was 19.8%; in the experiment with Rattus norvegicus [3], 44.7%; with Rattus norvegicus [4] it was 55.7%; with Rattus norvegicus [5], 37.8%.

Consider `COc1ccc(/C=N/NC(=O)c2cccnc2Nc2cccc(C(F)(F)F)c2)cc1`, for which the inhibition in vivo at 10 mg/kg in the experiment with Mus musculus amounted to 97.4%; in the experiment with Rattus norvegicus [1], 26.5%; with Rattus norvegicus [2], 14%; with Rattus norvegicus [3], 42.4%; in the experiment on Rattus norvegicus [4] it was 59.4%; with Rattus norvegicus [5], 50.4%.

Regarding `O=C(N/N=C/c1ccc(O)c(O)c1)c1cccnc1Nc1cccc(C(F)(F)F)c1`, the inhibition in vivo at 10 mg/kg was determined as 38.2% in the experiment on Rattus norvegicus [1]; 21.1% in the experiment on Rattus norvegicus [2]; 46.9% in the experiment on Rattus norvegicus [3]; 50.8% in the experiment with Rattus norvegicus [4]; 51.4% with Rattus norvegicus [5].

For `O=C(N/N=C/c1cccc(O)c1)c1cccnc1Nc1cccc(C(F)(F)F)c1`, the inhibition in vivo at 10 mg/kg in the experiment on Rattus norvegicus [1] came out at 49%; with Rattus norvegicus [2], 35.8%; in the experiment on Rattus norvegicus [3], 65.4%; in the experiment with Rattus norvegicus [4] it was 63.8%; in the experiment on Rattus norvegicus [5] it was 67.5%.

For `O=C(N/N=C/c1ccc(O)cc1)c1cccnc1Nc1cccc(C(F)(F)F)c1`, the inhibition in vivo at 10 mg/kg stood at 59.5% in the experiment on Rattus norvegicus [1]; 61.6% with Rattus norvegicus [2]; 68% in the experiment on Rattus norvegicus [3]; 70.5% in the experiment with Rattus norvegicus [4]; 59.2% in the experiment on Rattus norvegicus [5].

With `O=C(O)c1cccnc1Nc1cccc(C(F)(F)F)c1` [NIFLUMIC ACID], the inhibition in vivo at 10 mg/kg worked out at 68.3% with Mus musculus; 70.6% in the experiment on Rattus norvegicus [1]; 52% with Rattus norvegicus [2]; 70.1% in the experiment with Rattus norvegicus [3]; 70.4% with Rattus norvegicus [4]; 64.1% in the experiment on Rattus norvegicus [5].

Turning to `CNc1ncccc1C(=O)N/N=C/c1ccncc1`, the inhibition in vivo at 10 mg/kg in the experiment on Mus musculus is 90.6%; in the experiment on Rattus norvegicus [1], 55%; in the experiment on Rattus norvegicus [2], 15.5%; in the experiment with Rattus norvegicus [3], 60.4%; with Rattus norvegicus [4] it was 80.4%; in the experiment on Rattus norvegicus [5], 63.2%.

Values taken from ChEMBL document CHEMBL3046125, “Design and synthesis of niflumic acid-based N-acylhydrazone derivatives as novel anti-inflammatory and analgesic agents” (2013).
